Holding throughout (experiment): normalised viability (% of control), CellTiter-Blue; higher = more viable cells (about 100 = DMSO control)
Holding throughout (conditions): incubation time: 72 h
Background: Alamar Blue is a resazurin reagent that responds to reducing activity.

Assay [1] has as its system CAL-85-1. The method, then:
(§1)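 DSRT, CellTiter-Blue viability, 72 h incubation. Signal is normalised to DMSO and benzethonium chloride controls. Value is the normalised response at dose 8.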

Assay [2] deals with CAL-51. The method, then:
as §1

The test system of assay [3] is MDA-MB-453. The method, then: as §1
Assay [4] concerns CAL-148. The method, then:
as §1

Assay [5] has as its system HDQ-P1. The method, then: as §1
The test system of assay [6] is DU-4475. The method, then: as §1
Assay [7] has as its system CAL-85-1. The method, then:
(§2)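 DSRT, CellTiter-Blue viability, 72 h incubation. Signal is normalised to DMSO and benzethonium chloride controls. Value is the normalised response at dose 9.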
The source holds these as a separate data set.

Assay [8] relates to CAL-51. The method, then:
as §2
The source holds these as a separate data set.

Assay [9] has as its system MDA-MB-453. The method, then: as §2
This is another data set of the same source.

The test system of assay [10] is CAL-148. The method, then: as §2
The source holds these as a separate data set.

In assay [11] the test system is HDQ-P1. The method, then: as §2
This is another data set of the same source.

Assay [12] concerns DU-4475. The method, then:
as §2
This is another data set of the same source.

Structures are written as SMILES.

The values that follow come from the supplement of paper PMC4862054.

`C[C@]12C=CC(=O)C=C1CC[C@@H]1[C@@H]2C(=O)C[C@@]2(C)[C@H]1CC[C@]2(O)C(=O)CO` [Prednisone] (3000 nM): the normalised viability in the assay with CAL-85-1 [1] was 99.3%; in the assay on CAL-51 [2] it was 102%; in the assay on MDA-MB-453 [3] it was 93.5%; in the assay with CAL-148 [4], 94.2%; with HDQ-P1 [5], 120%; in the assay on DU-4475 [6], 104%.

With `CO[C@H]1C[C@@H]2CC[C@@H](C)[C@@](O)(O2)C(=O)C(=O)N2CCCC[C@H]2C(=O)O[C@H]([C@H](C)C[C@@H]2CC[C@@H](O)[C@H](OC)C2)CC(=O)[C@H](C)/C=C(\C)[C@@H](O)[C@@H](OC)C(=O)[C@H](C)C[C@H](C)/C=C/C=C/C=C/1C` [Sirolimus] (300 nM), the normalised viability in the assay on CAL-85-1 [1] is 59.8%; with CAL-51 [2], 31.1%; in the assay on MDA-MB-453 [3] it was 31.6%; in the assay with CAL-148 [4], 39.1%; in the assay on HDQ-P1 [5] it was 58.8%; in the assay on DU-4475 [6], 63.7%.

As to `CO[C@H]1C[C@@H]2CC[C@@H](C)[C@@](O)(O2)C(=O)C(=O)N2CCCC[C@H]2C(=O)O[C@H]([C@H](C)C[C@@H]2CC[C@@H](O)[C@H](OC)C2)CC(=O)[C@H](C)/C=C(\C)[C@@H](O)[C@@H](OC)C(=O)[C@H](C)C[C@H](C)/C=C/C=C/C=C/1C` [Sirolimus] (1000 nM), the normalised viability in the assay with CAL-85-1 [7] stood at 59.3%; in the assay on CAL-51 [8], 26.1%; with MDA-MB-453 [9] it was 25.3%; in the assay with CAL-148 [10] it was 44%; in the assay with HDQ-P1 [11], 70.3%; in the assay on DU-4475 [12] it was 59.9%.

Consider `CN1CCN(c2nc(C3=C(c4c[nH]c5ccccc45)C(=O)NC3=O)c3ccccc3n2)CC1` [Sotrastaurin] (3000 nM), for which the normalised viability with CAL-85-1 [1] was 141%; in the assay on CAL-51 [2], 97.3%; with MDA-MB-453 [3], 93.8%; with CAL-148 [4], 116%; in the assay with HDQ-P1 [5], 126%; with DU-4475 [6], 95.9%.

In the case of `CC/C(=C(\c1ccccc1)c1ccc(OCCN(C)C)cc1)c1ccccc1` [Tamoxifen] (3000 nM), the normalised viability in the assay with CAL-85-1 [1] is 102%; in the assay with CAL-51 [2], 99.1%; in the assay with MDA-MB-453 [3] it was 89.7%; in the assay with CAL-148 [4], 117%; in the assay with HDQ-P1 [5] it was 100%; in the assay with DU-4475 [6] it was 106%.

On to `COc1cc2c(N3CCN(C(=O)Nc4ccc(OC(C)C)cc4)CC3)ncnc2cc1OCCCN1CCCCC1` [Tandutinib] (300 nM), for which the normalised viability in the assay on CAL-85-1 [1] was found to be 95.7%; in the assay on CAL-51 [2], 115%; in the assay on MDA-MB-453 [3], 102%; in the assay with CAL-148 [4] it was 94.4%; in the assay on HDQ-P1 [5], 93.5%; with DU-4475 [6], 109%.

Turning to `C[C@@H](C(=O)O)c1ccc(-c2ccccc2)c(F)c1` [Tarenflurbil] (3000 nM), the normalised viability in the assay with CAL-85-1 [1] turned out to be 88.8%; with CAL-51 [2], 113%; with MDA-MB-453 [3], 79.5%; with CAL-148 [4] it was 94.4%; in the assay with HDQ-P1 [5], 93%; in the assay on DU-4475 [6] it was 115%.

With `Cn1nnc2c(C(N)=O)ncn2c1=O` [Temozolomide] (3000 nM), the normalised viability in the assay with CAL-85-1 [1] turned out to be 97.3%; in the assay with CAL-51 [2], 93.6%; in the assay on MDA-MB-453 [3], 104%; in the assay with CAL-148 [4], 88.8%; in the assay with HDQ-P1 [5], 103%; in the assay on DU-4475 [6], 100%.

In the case of `CC[C@@H]1C(=O)N(C)c2cnc(Nc3ccc(C(=O)N[C@H]4CC[C@H](N5CCN(CC6CC6)CC5)CC4)cc3OC)nc2N1C(C)C` [Volasertib] (300 nM), the normalised viability in the assay with CAL-85-1 [1] was 64.6%; with CAL-51 [2] it was 9.3%; in the assay on MDA-MB-453 [3], 34.3%; with CAL-148 [4], 26.6%; in the assay with HDQ-P1 [5], 59.4%; in the assay on DU-4475 [6], 18.6%.
